Measurements from patent publication US20080279856A1, “Inhibition of Bradykinin Release” (Novo Nordisk Pharmaceuticals, Inc., priority 1999, published 2008).

T1: HBP (Homo sapiens, UniProt P20160)
T1 sequence (P20160 27-248): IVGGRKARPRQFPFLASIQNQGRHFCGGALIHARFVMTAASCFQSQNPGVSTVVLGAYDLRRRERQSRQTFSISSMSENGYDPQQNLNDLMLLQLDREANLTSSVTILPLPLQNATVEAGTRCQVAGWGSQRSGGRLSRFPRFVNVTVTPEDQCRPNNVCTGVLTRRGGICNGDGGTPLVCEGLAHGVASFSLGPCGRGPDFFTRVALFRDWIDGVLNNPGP

T2: HBP mutant (G175N) (Homo sapiens, UniProt P20160, G201N)
T2 sequence (P20160 27-248 G201N): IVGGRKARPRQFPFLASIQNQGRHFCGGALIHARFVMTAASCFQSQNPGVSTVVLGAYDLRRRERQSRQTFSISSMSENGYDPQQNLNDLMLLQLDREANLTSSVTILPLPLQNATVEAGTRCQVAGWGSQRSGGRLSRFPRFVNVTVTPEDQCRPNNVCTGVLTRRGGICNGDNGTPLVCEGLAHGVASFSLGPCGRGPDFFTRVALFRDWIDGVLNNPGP


Legend:
[1] = 3H-LPS binding to HBP, scintillation proximity assay; settings: up to 50 mM unlabeled BPTI
Protocol: The affinity for lipopolysaccharide (3H-LPS) is measured by scintillation proximity assay technology (SPA) as described (Linde, V., Bjørn, S., Kastrup, J. S., and Flodgaard, H., 2000, Biotechniques 28:218-222). All samples are repeated in triplicates.

[2] = tested on: bradykinin-induced increase in EC permeability; experiment: Inhibition of bradykinin-induced increase in EC permeability; format: cell-based, human, bovine; settings: aprotinin 100 μg/ml; subsequent bradykinin 100 nM
Protocol: (§1) For measurement of electrical resistance across the EC monolayer, the filter insert is transferred to a resistance measurement chamber (ENDOHM-12; World Precision Instruments, Sarasota, Fla., USA) modified so as to assure exact positioning of the electrodes in relation to each other and to the filter insert during repeated measurements. The chamber (lower compartment) and the filter insert (upper compartment) are filled with 2 ml and 400 μl culture medium, respectively. All measurements are made at 37° C. with the equipment placed in a cell culture incubator. Direct readings of the electrical resistance are given by an ohmmeter (EVOM; World Precision Instruments, Sarasota, Fla., USA) connected to the electrodes of the resistance chamber. The electrical resistance of individual EC monolayers is obtained by subtracting the resistance of the corresponding naked filter coated with Biomatrix as measured prior to seeding of the endothelial cells.
Before transferring the filter inserts to the resistance measurement chamber (kept at 37° C.), the medium in the insert and in the chamber is replaced with fresh culture medium (37° C.) supplemented with 10 mM Hepes. HBP (25-100 μg/ml) or PMN secretion product is added either to the upper or the lower compartment and change in transendothelial electrical resistance is measured every minute until a plateau phase is reached, and thereafter at 5-min intervals. In separate experiments, PMNs (2×10^6) preincubated with mAb IB4 (10 μg/ml) are added to the upper compartment (PMN:EC ratio=10:1) and allowed to sediment for 10 min. Activation of the PMNs is induced through antibody crosslinking of leukocytic CD18 by addition of goat anti-mouse IgG F(ab′)2 diluted 1:20. In experiments where albumin permeability across the EC monolayer is studied, the medium in the insert contained EBA. During the experiment, the filter insert is moved at 5-10 min intervals to new wells containing fresh medium. All incubations are made at 37° C. After the experiment, the medium in the lower wells is aspirated and analyzed for EBA content.

HBP = biological target: T1, HBP; settings: cited from earlier work
HBP mutant (G175N) = biological target: T2, HBP mutant (G175N); experiment: Aprotinin effect on leakage induced by HBP mutant (G175N); format: cell-based; settings: leakage model
[3] = tested on: kallikrein-C1-inhibitor and C1-C1-inhibitor complexes; settings: cited from earlier work
[4] = tested on: HBP-induced increase in EC permeability; experiment: Inhibition of HBP-induced increase in EC permeability; format: cell-based, human, bovine; settings: aprotinin 100 μg/ml, 30 min pre-incubation; HBP 75 μg/ml; N=6
Description: Alternatively, HBP antagonists may be detected by culturing endothelial cells in the presence of HBP and in the presence and absence of a substance suspected of being an antagonist. In a specific embodiment, the antagonist is a monoclonal antibody that binds to at least one epitope of HBP, preferably human HBP, wherein said epitope binds to prekallikrein-H-kininogen complex and activates release of bradykinin. In a preferred embodiment, the monoclonal antibody is a human monoclonal antibody. In one embodiment, the antibody and HBP are preincubated together before incubating with endothelial cells for about 10 minutes at 37° C. The effect of the substance on the permeability of endothelial cells is determined by measuring transendothelial electrical resistance or determining albumin clearance as described in the Examples, infra. A decrease in permeability would indicate that the substance does act as an HBP antagonist.
as §1, with “All measurements are made at 37° C. with the equipment placed in a cell culture incubator.” left out
Evans blue dye-conjugated albumin (EBA) is used as a marker for macromolecular permeability of the EC monolayers. […] In experiments where albumin permeability is analyzed, the culture medium in the upper compartment is exchanged for medium containing EBA. […]

endothelial cell = settings: hypoxic cold storage in organ preservation solutions; cited from earlier work
vascular permeability = settings: cited from earlier work
[5] = after cardiac operations; cited from earlier work
aprotinin = aprotinin (Bos taurus, UniProt P00974); experiment: Ability of HBP variants to bind aprotinin; format: binding
EC permeability = experiment: Leakage model: bradykinin release and EC permeability induced by HBP variants; format: cell-based

competition for 3H-LPS binding to native HBP [1]	effect of aprotinin on mutant-induced leakage (HBP mutant (G175N))	ability to bind aprotinin (aprotinin)	Molecule	effect on bradykinin-induced permeability change [2]	Kd (HBP)	kallikrein-C1-inhibitor and C1-C1-inhibitor complexes [3]	effect on HBP-induced increase in EC permeability [4]	endothelial cell viability (endothelial cell)	vascular permeability and neutrophil count (vascular permeability)	blood loss [5]	postoperative bleeding time [5]	induction of bradykinin release and EC permeability (EC permeability)
no inhibitory effects	no inhibitory effect	–	aprotinin	but not the permeability change induced by subsequent administration of bradykinin	100 nM	decrease	largely prevented	increases endothelial cell viability	decreased this vascular permeability and neutrophil count	reduces blood loss	decreases the elevated postoperative bleeding time	–
–	–	unable to bind aprotinin	HBP mutant (G175N): HBP mutant unable to bind aprotinin, three dimensional structure unaltered (protein) IVGGRKARPRQFPFLASIQNQGRHFCGGALIHARFVMTAASCFQSQNPGVSTVVLGAYDLRRRERQSRQTFSISSMSENGYDPQQNLNDLMLLQLDREANLTSSVTILPLPLQNATVEAGTRCQVAGWGSQRSGGRLSRFPRFVNVTVTPEDQCRPNNVCTGVLTRRGGICNGDNGTPLVCEGLAHGVASFSLGPCGRGPDFFTRVALFRDWIDGVLNNPGP	–	–	–	–	–	–	–	–	induces bradykinin release and increase in EC permeability
